The target of this assay is T1, CheR (Pectobacterium atrosepticum, UniProt Q6D6I8).
T1 sequence (Q6D6I8 1-290): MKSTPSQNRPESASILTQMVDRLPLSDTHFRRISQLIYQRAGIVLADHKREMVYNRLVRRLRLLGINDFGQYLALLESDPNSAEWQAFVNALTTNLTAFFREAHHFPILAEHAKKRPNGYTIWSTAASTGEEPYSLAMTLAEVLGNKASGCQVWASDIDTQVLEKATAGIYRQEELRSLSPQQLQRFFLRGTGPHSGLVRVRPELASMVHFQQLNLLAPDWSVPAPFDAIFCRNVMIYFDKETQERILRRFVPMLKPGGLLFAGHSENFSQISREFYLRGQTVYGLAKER
The assay can be described thus: isothermal titration calorimetry. Type of assay: binding. Background: In ITC the heat of successive injections is recorded.

In general, Kd refers to the equilibrium constant for the complex coming apart. The low end stands for a tighter complex, the high end for a looser complex. `Nc1ncnc2c1ncn2[C@@H]1O[C@H](CSCC[C@H](N)C(=O)O)[C@@H](O)[C@H]1O` [SAH] had a Kd of 0.48 ± 0.02 µM. `C[S+](CC[C@H](N)C(=O)O)C[C@H]1O[C@@H](n2cnc3c(N)ncnc32)[C@H](O)[C@@H]1O` (some centres unmarked) [SAM] displayed a Kd of 140 ± 20 µM.
